This note sets out measurements from patent US5310884A (Merck Frosst Canada, Inc., priority 1992, dated 1994).

As a reminder, the Kd is the constant that tells how readily two partners part at equilibrium.

Data set [1] deals with 45 kDa guinea-pig lung membrane protein. The data set can be described thus: Deglycosylation of the photoaffinity labelled 45 kDa guinea-pig lung membrane protein by N-Glycosidase F. To be noted: 1 μM LTD4. Type of data set: biochemical. On the procedure: FIG. 10. […] Following photolysis the guinea-pig lung membranes were recovered from 1 ml sample aliquots by centrifugation at 150,000×g for 15 min at 4° C. The membranes were then solubilized in 20 μl of incubation buffer (20 mM NaHPO4, pH 7.4, containing 10 mM EDTA and 1 % (v/v) 2-mercaptoethanol) containing 1 % (w/v) SDS. The solubilized preparation was then diluted with incubation buffer to a final volume of 200 μl containing 1 % (w/v) octylglucoside and 0-60 U / ml of recombinant N-Glycosidase F, and incubated overnight at room temperature. Samples were further diluted in 3-fold concentrated SDS sample buffer and analysed by SDS-PAGE, followed by autoradiography. […] The migration of the molecular weight standards is indicated on the left.
In every case the only detectable product was the 40 kDa protein. […] This is also supported by qualitative evidence since the radiolabelled precursor migrated as a diffuse band during SDS-PAGE, behaviour typical of glycoproteins, while the deglycosylated product migrated as a more focused band.

The target of data set [2] is T1, LTD4 receptor (guinea-pig lung membranes) (Cavia porcellus, UniProt Q2NNR5).
T1 sequence (Q2NNR5 1-340): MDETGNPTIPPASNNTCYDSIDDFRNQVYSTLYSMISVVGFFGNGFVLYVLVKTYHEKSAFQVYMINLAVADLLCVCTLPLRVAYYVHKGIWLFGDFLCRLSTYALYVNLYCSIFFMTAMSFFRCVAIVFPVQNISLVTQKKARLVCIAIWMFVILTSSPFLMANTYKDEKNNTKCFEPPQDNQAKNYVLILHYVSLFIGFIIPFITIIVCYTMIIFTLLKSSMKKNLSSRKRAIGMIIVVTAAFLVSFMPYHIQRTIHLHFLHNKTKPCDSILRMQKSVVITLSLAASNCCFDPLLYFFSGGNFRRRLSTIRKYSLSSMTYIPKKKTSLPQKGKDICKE
The data set can be described thus: Saturation binding to guinea-pig lung membranes, Scatchard plot analysis. Further details: Guinea pigs (male; 350 g) were sacrificed by cervical dislocation and the lung tissues removed; from tissue; host or cells: guinea-pig lung (primarily parenchyma), sucrose-gradient membrane fraction.

For data set [3], the target named is T1, LTD4 receptor (guinea-pig lung membranes). Description: Rates of association and dissociation of radioligand binding to guinea-pig lung membranes. Also noted: Guinea pigs (male; from tissue; host or cells: guinea-pig lung (primarily parenchyma), sucrose-gradient membrane fraction. On the procedure: FIG. 3. […] Aliquots (500 μl) were removed and filtered at the required time intervals.

A short description of data set [4]: RP-HPLC stability of [125I]Azido-LTD4 under binding assay conditions with guinea-pig lung membrane. It counts as in vitro ADME. To be noted: 60 min. Here is the method: RP-HPLC was conducted to assess the stability of [^125 I]Azido-LTD4 under binding assay conditions. […] Following a 60 min incubation at room temperature, samples were centrifuged at 150,000×g for 15 min at 4° C. The supernatant (unbound radioligand) was removed and the membrane pellet was resuspended by sonication in 150 μl of RP-HPLC solvent ([…] (v/v) MeOH:H2O:HOAc containing 0.01% 2-mercaptoethanol and 0.5 mM EDTA). The samples were centrifuged at 150,000×g for 15 min at 4° C. and the supernatent removed (bound radioligand). Bound and unbound radioligand fractions (100 μl) were analysed by RP-HPLC using a Nova Pac C18 column (0.39 ×15 cm; Waters Assoc.) eluted isocratically at a flow rate of 1 ml/min with RP-HPLC solvent. The profile of iodinated material from bound and unbound radioligand samples was determined by on-line solid scintillation gamma counting (Berthold HPLC radioactivity monitor LB 506 C1). [^125 I]Azido-LTD4 was identified by […] of non-radioactive [^127 I]Azido-LTD4 monitored by optical density at 280 nm.
FIGS. 2(A) and 2(B) RP-HPLC analysis of [^125 I]Azido-LTD4 stability. RP-HPLC was used to assess the stability of [^125 I]Azido-LDT4 under the conditions routinely employed for binding assays as described in the Methods.

Data set [5] concerns the target T1, LTD4 receptor (guinea-pig lung membranes). To be noted: 60 pM radioligand, 20-30 μg membrane protein. On the procedure:
Guinea pigs (male; 350 g) were sacrificed by cervical dislocation and the lung tissues removed. All subsequent procedures were performed either on ice or at 4° C. Connective tissue, trachea, large blood vessels and major airways were dissected away and the remaining lung tissue (primarily parenchyma) was finely minced prior to homogenisation in 10 vol of 10 mM HEPES/KOH pH 7.4, containing 0.25 M sucrose, 2 mM EDTA, 2 mM phenylmethylsulphonyl fluoride, 10 μg/ml pepstatin, 10 μg/ml leupeptin and 10 μM E-64, using 5 s bursts of a polytron (Brinkman Instruments). The homogenate was subjected to differential centrifugation at 1000×g for 10 min, 10,000×g for 10 min and 100,000×g for 40 min. The resulting 100,000×g pellets were resuspended in 10 mM HEPES/KOH pH 7.4, containing 10% (w/v) sucrose, at a final protein concentration of 1-2 mg/ml. This tissue suspension was carefully layered over 10 mM HEPES/KOH pH 7.4 containing 40% (w/v) sucrose in a 3:2 (v/v) ratio. The discontinuous sucrose gradient was centrifuged at 83,000×g for 60 min. The membrane fraction located at the interface of the sucrose gradient layers was recovered, diluted 10-fold in 10 mM HEPES/KOH pH 7.4 and further centrifuged at 150,000×g for 40 min. The final membrane pellets were resuspended in 10 mM HEPES/KOH pH 7.4 at a protein concentration of 2-4 mg/ml and stored at […].
Filters were then washed with 16 ml of 10 mM HEPES/KOH, pH 7.4 containing 0.01% (w/v) bovine serum albumin, at 4° C.
FIG. 4. […] Radiolabelled proteins were resolved by SDS-PAGE and visualized by autoradiography. […] In addition, photoaffinity labelled membranes were subjected to immunoprecipitation with RAGpAlb (Lane C) and non-immune rabbit serum (Lane D), as described in the Methods. The migration of molecular weight standards is indicated on the left. FIGS. 5(A)-5(C). […] Results are expressed as percentage of maximum specific binding as a function of CaCl2 concentration. […] Only the results for total binding are shown.
Results are expressed as percentage of maximum specific binding as a function of nucleotide concentration. […] Only the results for total binding are shown.
Results are expressed as percentage of maximum specific binding as a function of cation concentration. […] Only the results for total binding are shown.

Data set [6] deals with 66.2 kDa protein (guinea-pig serum albumin). The data set can be described thus: Photoaffinity labelling of 66.2 kDa protein and immunoprecipitation with rabbit anti-guinea-pig albumin antisera. The settings on record: lung membranes and guinea-pig serum. Type of data set: binding. Here is the method: Samples were incubated for 60 min at room temperature. Aliquots (2×500 μl) were then removed and the bound [^125 I]Azido-LTD4 quantified as described for the filtration binding assays. The residual samples were then transferred to 25 mm diameter cluster plate well for photolysis. The cluster plates were placed on aluminium blocks, pre-cooled to -20° C., and illuminated from above with a 40 W ultraviolet light source (Phillips, γmax =350 nm) at a distance of 10 cm for 2 min. The guinea-pig lung membranes were then recovered from 1 ml sample aliquots by centrifugation at 150,000×g for 15 min at 4° C. and solubilized in sodium dodecyl sulphate polyacrylamide gel electrophoresis (SDS-PAGE) sample buffer prior to resolution of the proteins by SDS-PAGE (Laemmli, 1970). Protein bands were visualized by Coomassie Blue staining while radiolabelled proteins were identified by autoradiography of dried gels and quantified by laser densitometry (Molecular Dynamics, ImageQuant).
The TXIP solubilized samples were centrifuged at 14,000×g for 15 min at 4° C. and the supernatant mixed directly with 50 μl of non-immune rabbit serum or RAGpAlb premixed for 15 min at 4° C. with 80 μl of protein A-Sepharose (50 mg/ml in TXIP). […] The final immunocomplex was dissociated by resuspension in SDS-PAGE sample buffer for 5 min at 95° C. and analysed by SDS-PAGE and autoradiography of the dried gels. […]

Turning to `CCCCC/C=C\C\C=C/C=C/C=C/[C@@H](SC[C@H](N)C(=O)NCC(=O)O)[C@@H](O)CCCC(=O)O` [LTD4], the “presence of radiolabelled precursor and product after pretreatment with LTD4” value in data set [1] was “not present”.
Consider `CCCCC/C=C\C\C=C/C=C/C=C/[C@@H](SC[C@H](NC(=O)CCCCCNC(=O)c1cc([125I])c(N=[N+]=[N-])cc1O)C(=O)NCC(=O)O)[C@@H](O)CCCC(=O)O` [[^125 I]Azido-LTD4], for which the “maximum number of binding sites (Bmax)” value in data set [2] (Scatchard, single site) is given as 1000 fmol/mg protein. The Kd in data set [2] (read-out: equilibrium dissociation constant (KD)) turned out to be 0.2 nM. In addition, in data set [3] (1 μM LTD4, additional 50 min incubation), the “dissociation of binding by 1 μM LTD4” value is listed as “approximately 50%”. The “association: time to reach equilibrium” value in data set [3] (guinea-pig lung membranes) came out at 60 min. For the same compound, in data set [3] (to non-specific levels), the “dissociation of binding by 1 μM LTD4 with 10 μM GTPγS” value is “almost instantaneous and complete dissociation”. The stability of radioligand entry in data set [4] (room temperature, lung membrane, pH 7.4) is given as “completely stable”. Also, the “recovery of radioactive material following RP-HPLC” value in data set [4] (bound and unbound fractions after incubation with lung membrane, 60 pM) is “approximately 100%”. Moreover, in data set [5], the “fraction of added radioligand bound to guinea-pig lung membranes” value is given as 10-20%. The “radiolabelling of 66.2 kDa protein (selectivity)” value in data set [6] is reported as “non-selectively labelled”.
